Patent US20050142111A1, “Method to prevent transplant rejection by stable expression of heme oxygenase-1” (priority 2003, published 2005)

Assays:
[1] = system: LEW heart grafts to F344 recipients; test: Allogeneic heart transplant graft survival; assay type: in vivo, rat
Protocol: LEW (RT1′) and F344 (RT1^lvl) rats were purchased from the Institute of Laboratory Animals, Medical School Hannover, Germany, and maintained in the Laboratory Animal Unit, The University of Hong Kong. All experimental procedures were performed according to institutional guidelines and approved by the Committee on the Use of Live Animal in Teaching and Research. Allogeneic heart transplants were performed using LEW and F344 rats weighing from 200-250 grams as donors or recipients respectively. For the syngeneic graft, LEW rats were used as recipients. In brief, after in situ perfusion of donor heart grafts with the HTK solution (Koehler Chemie, Germany), 1×10^12 vector genomes of rAAV/GFP or rAAV/HO-1 were administered into the heart graft via the coronary artery. Grafts were then preserved in cold HTK solution for 6 hours before the transplant. The implantation procedure was as described in the literature. Graft function was monitored by daily palpation, and the allograft rejection was defined by full cessation of ventricular contraction, and confirmed by pathological examination.
Heme oxygenase-1 inhibitor, zinc protoprophyrin IX (ZnPPIX, Calbiochem-Novabiochem, Germany) was administered intraperitoneally according to the experimental protocols. […]

HO = target: T1, HO (Rattus norvegicus, UniProt P06762); test: Blocking of HO activity by ZnPPIX, carboxyhemoglobin in peripheral blood of recipients; assay type: in vivo; conditions: 2 mg/kg/day intraperitoneally to recipients
T1 construct: expressed in transfected cells; host or cells: LEW rat heart allografts transduced with rAAV/HO-1, in F344 rat recipients (in vivo)
T1 sequence (P06762 1-289): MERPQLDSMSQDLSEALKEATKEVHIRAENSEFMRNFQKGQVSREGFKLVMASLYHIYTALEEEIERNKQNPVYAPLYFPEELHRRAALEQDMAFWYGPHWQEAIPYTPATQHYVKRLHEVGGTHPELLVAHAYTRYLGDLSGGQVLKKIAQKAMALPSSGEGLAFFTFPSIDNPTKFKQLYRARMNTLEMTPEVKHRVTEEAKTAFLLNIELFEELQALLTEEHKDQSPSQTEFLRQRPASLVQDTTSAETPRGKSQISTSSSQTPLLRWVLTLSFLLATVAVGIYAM
Protocol: Heme oxygenase-1 inhibitor, zinc protoprophyrin IX (ZnPPIX, Calbiochem-Novabiochem, Germany) was administered intraperitoneally according to the experimental protocols.
The HO enzyme activity was measured by two of its end products: carbon monoxide and biliverdin/bilirubin. The amount of carbon monoxide was measured by spectrophotometry providing a determination of carboxyhemoglobin in the peripheral blood of the animals. The level of intragraft bilirubin was measured by the method as described. In brief, the frozen samples of grafts were homogenized in ice-cold sucrose and Tri-HCl buffer. The microsomal pellet was obtained after centrifugation, and re-suspended in MgCl2-potassium phosphate buffer. Sample protein was then incubated with the reaction mixture containing rat liver cytosol, hemin, glucose-6-phosphate, glucose-6-phosphate dehydrogenase and NADPH (Sigma-Aldrich, St. Louis) for 60 minutes at 37° C. The generated bilirubin was measured by reacting with diazotized surfanilic acid to yield azobilirubin using spectrophotometry. The level of intragraft bilirubin was deduced by the ratio of its contents in the sample/naive heart. […]

C=CC1=C(C)c2cc3[n-]c(cc4[n-]c(cc5nc(cc1n2)C(C)=C5C=C)c(C)c4CCC(=O)O)c(CCC(=O)O)c3C.[Zn+2] [ZnPPIX, zinc protoporphyrin IX]
graft survival rate in rAAV/HO-1+CsA group ([1]; ZnPPIX administered from day 31 to 100): remained unchanged
graft survival in rAAV/HO-1+CsA group ([1]; combined administration of ZnPPIX from day 0 to 30): shortened
HO activity, level of carboxyhemoglobin (HO): significantly inhibited
